Experiments:
[1] = target: Muscarinic acetylcholine receptor M3 (Homo sapiens, UniProt P20309); assay: Displacement of [3H]NMS from recombinant human muscarinic M3 receptor expressed in CHOK1 cell membranes after 120 mins by scintillation counting method
[2] = target: T1, Muscarinic acetylcholine receptor M1 (Homo sapiens, UniProt P11229); assay: Displacement of [3H]NMS from recombinant human muscarinic M1 receptor expressed in CHOK1 cell membranes after 120 mins by scintillation counting method
T1 sequence (P11229 whole entry): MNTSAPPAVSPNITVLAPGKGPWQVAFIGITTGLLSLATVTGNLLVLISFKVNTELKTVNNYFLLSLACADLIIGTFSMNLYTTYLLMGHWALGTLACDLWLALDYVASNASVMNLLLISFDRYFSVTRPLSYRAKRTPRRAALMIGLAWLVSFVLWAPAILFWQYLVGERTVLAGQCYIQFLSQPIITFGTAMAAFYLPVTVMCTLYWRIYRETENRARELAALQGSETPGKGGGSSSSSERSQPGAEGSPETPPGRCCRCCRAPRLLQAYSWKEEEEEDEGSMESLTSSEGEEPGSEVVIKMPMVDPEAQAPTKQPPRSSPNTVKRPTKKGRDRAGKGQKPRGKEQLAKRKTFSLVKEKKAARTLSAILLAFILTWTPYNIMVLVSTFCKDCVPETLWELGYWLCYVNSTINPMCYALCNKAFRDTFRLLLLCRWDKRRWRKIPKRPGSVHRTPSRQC

[3] = target: T2, Muscarinic acetylcholine receptor M4 (Homo sapiens, UniProt P08173); assay: Displacement of [3H]NMS from recombinant human muscarinic M4 receptor expressed in CHOK1 cell membranes after 120 mins by scintillation counting method
T2 sequence (P08173 whole entry): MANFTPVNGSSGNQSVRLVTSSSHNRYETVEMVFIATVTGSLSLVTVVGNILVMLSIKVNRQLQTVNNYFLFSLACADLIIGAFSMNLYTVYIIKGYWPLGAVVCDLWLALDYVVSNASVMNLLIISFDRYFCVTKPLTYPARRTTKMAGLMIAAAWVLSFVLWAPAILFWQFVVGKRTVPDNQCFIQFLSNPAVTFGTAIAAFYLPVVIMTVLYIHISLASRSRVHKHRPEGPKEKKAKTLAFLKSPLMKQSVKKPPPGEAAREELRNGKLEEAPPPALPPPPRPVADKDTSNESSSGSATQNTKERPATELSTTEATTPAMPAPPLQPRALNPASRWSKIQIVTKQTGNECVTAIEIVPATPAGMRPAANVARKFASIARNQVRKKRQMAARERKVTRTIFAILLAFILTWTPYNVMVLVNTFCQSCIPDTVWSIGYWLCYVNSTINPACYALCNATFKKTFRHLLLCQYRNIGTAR

[4] = target: T3, Muscarinic acetylcholine receptor M2 (Homo sapiens, UniProt P08172); assay: Displacement of [3H]NMS from recombinant human muscarinic M2 receptor expressed in CHOK1 cell membranes after 120 mins by scintillation counting method
T3 sequence (P08172 whole entry): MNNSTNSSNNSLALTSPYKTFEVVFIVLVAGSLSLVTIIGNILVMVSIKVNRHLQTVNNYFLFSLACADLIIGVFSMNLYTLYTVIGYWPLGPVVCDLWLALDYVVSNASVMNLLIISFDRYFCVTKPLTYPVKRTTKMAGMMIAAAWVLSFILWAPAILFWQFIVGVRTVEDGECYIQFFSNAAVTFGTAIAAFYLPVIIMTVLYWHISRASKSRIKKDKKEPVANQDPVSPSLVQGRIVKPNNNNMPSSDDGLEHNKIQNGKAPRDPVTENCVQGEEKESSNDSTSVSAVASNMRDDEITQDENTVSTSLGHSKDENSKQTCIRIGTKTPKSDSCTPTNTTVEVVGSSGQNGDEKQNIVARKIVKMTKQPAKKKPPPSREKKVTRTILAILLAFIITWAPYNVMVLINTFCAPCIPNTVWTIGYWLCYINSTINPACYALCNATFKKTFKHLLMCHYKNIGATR

[5] = target: T4, Muscarinic acetylcholine receptor M5 (Homo sapiens, UniProt P08912); assay: Displacement of [3H]NMS from recombinant human muscarinic M5 receptor expressed in CHOK1 cell membranes after 120 mins by scintillation counting method
T4 sequence (P08912 whole entry): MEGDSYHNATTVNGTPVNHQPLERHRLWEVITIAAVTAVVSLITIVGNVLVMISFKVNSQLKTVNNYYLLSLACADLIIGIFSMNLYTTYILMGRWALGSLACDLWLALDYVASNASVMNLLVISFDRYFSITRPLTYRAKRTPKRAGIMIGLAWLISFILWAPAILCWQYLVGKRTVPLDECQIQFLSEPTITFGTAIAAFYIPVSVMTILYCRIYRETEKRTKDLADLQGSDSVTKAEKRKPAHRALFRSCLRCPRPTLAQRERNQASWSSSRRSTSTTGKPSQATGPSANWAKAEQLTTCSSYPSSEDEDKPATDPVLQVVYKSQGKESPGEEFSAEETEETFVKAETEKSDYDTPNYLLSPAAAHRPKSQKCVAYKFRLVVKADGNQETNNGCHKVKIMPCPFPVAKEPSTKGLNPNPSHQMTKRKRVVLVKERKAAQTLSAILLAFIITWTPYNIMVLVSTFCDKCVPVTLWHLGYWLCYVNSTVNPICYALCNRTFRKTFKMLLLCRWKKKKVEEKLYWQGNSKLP

Muscarinic acetylcholine receptor M3, sequence (P20309 whole entry): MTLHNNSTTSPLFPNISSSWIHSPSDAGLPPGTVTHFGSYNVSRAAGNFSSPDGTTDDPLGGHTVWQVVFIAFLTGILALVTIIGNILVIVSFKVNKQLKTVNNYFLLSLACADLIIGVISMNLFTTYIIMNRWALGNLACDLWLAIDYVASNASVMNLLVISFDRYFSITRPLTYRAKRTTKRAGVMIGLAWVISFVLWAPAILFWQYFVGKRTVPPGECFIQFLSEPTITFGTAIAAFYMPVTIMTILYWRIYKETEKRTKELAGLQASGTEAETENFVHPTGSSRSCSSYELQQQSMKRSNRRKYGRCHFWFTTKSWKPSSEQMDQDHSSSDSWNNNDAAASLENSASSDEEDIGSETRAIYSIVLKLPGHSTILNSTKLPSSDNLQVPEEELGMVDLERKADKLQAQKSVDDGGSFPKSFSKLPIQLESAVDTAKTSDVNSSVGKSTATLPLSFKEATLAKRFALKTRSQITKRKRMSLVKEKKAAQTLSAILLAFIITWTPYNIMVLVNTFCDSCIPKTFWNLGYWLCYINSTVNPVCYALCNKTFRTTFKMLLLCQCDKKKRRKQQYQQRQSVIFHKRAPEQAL

| SMILES | Ki [1] [µM] | Ki [2] [µM] | Ki [3] [µM] | Ki [4] [µM] | Ki [5] [µM] |
| --- | --- | --- | --- | --- | --- |
| c1ccc(C2(c3ccccc3)COC[C@@H](CO[C@@H]3CN4CCC3CC4)O2)cc1 | 0.105 | 0.055 | 0.1 | 0.0617 | 0.112 |
| c1ccc(C2(c3ccccc3)COC[C@H](CO[C@H]3CN4CCC3CC4)O2)cc1 | 0.0437 | 0.00891 | 0.0229 | 0.0575 | 0.0457 |
| O=C(O[C@H]1CN2CCC1CC2)N1CCc2ccccc2[C@@H]1c1ccccc1 [SOLIFENACIN] | 0.0132 | 0.0513 | 0.129 | 0.12 | 0.0437 |
| c1ccc(C2(c3ccccc3)COC[C@H](CO[C@@H]3CN4CCC3CC4)O2)cc1 | 0.02 | 0.00457 | 0.0115 | 0.0331 | 0.0191 |
| c1ccc(C2(c3ccccc3)COC[C@@H](CO[C@H]3CN4CCC3CC4)O2)cc1 | 0.617 | 0.162 | 0.437 | 0.355 | 0.631 |

From ChEMBL document CHEMBL4118068 (Eur J Med Chem, 2017)
